Source: patent US9783490B2, “Antimicrobial compounds, their synthesis and applications thereof” (The Secretary of State for Health, priority 2012, dated 2017)

Experiments:
[1] = system: MRSA (ATCC 33591); assay: Minimum Inhibitory Concentration, micro-dilution broth; assay type: cell-based, Methicillin resistant S. aureus; settings: for Minimum Inhibitory Concentration MRSA: Drug resistant bacteria
Experimental: (§1) Microorganisms and Culture Conditions: Bacterial strains, S. aureus (MTCC 737) and E. coli (MTCC 443) are purchased from MTCC (Chandigarh, India). MRSA (ATCC 33591), Pseudomonas aeruginosa (ATCC 4676), […]-lactamase producing and drug-resistant Klebsiella pneumonia (ATCC700603), Enterococcus faecium (ATCC 19634) and vancomycin resistant Enterococcus faecium (ATCC 51559) are obtained from ATCC (Rockville, Md., USA).
(§2) E. coli is cultured in Luria Bertani broth (10 g of tryptone, 5 g of yeast extract, and 10 g of NaCl in 1000 mL of sterile distilled water (pH −7) while S. aureus, Pseudomonas aeruginosa (ATCC 4676) and MRSA are grown in Yeast-dextrose broth (1 g of beef extract, 2 g of yeast extract, 5 g of peptone and 5 g of NaCl in 1000 mL of sterile distilled water). For all Enterococcus faecium, Brain Heart Infusion broth (BHI) is used. For solid media 5% agar was used along with above mentioned composition. K. pneumonia was grown in nutrient media (3 g of beef extract and 5 g of peptone in 1000 mL of sterile distilled water). The bacterial samples were freeze dried and stored at −80° C. 5 μl of these stocks were added to 3 mL of the nutrient broth and the culture was grown for 6 h at 37° C. prior to the experiments.
(§3) Antibacterial activity is reported as Minimum Inhibitory Concentration (MIC), i.e. the lowest concentration of the antimicrobial agent that will inhibit the growth of a microorganism after overnight incubation. Water-soluble ACK, NCK and BCK series of compounds are assayed in a modified micro-dilution broth format. Stock solutions are made by serially diluting the compounds using autoclaved Millipore water. Bacteria, to be tested are grown for about 6 hrs in the suitable media containing ˜10^9 cfu/mL (determined through dilution plate technique by spread plate method), which is then diluted to 10^5 cfu/mL using nutrient media. 50 μL of serially diluted compound is added to a 96 well plate containing 150 μL bacterial solutions. Two controls are made; one containing 150 μL of media and 50 μL of compound and the other containing 200 μL of bacterial solution. […] MIC value is determined by taking the average of triplicate O.D. values for each concentration and plotting it against concentration using Origin Pro 8.0 software. The data is then subjected to sigmoidal fitting. From the curve, MIC value is determined, as the point in the curve where the O.D. is similar to that of control having no bacteria. The MIC values and errors of independent experiments are reported as average and standard deviation of triplicates.

[2] = system: E. coli (MTCC 443); assay: as above; assay type: cell-based, Escherichia coli; settings: for Minimum Inhibitory Concentration E. coli: Drug sensitive bacteria
Experimental: as §1, §2, §3

[3] = system: human RBCs; assay: Haemolytic activity (HC50); assay type: cell-based; settings: concentration at which 50% of the blood cells are lysed; human RBCs
Experimental: Erythrocytes are isolated from freshly drawn, heparinized human blood and re-suspended to 5 vol % in PBS (pH 7.4). In a 96-well microtiter plate, 150 μl of erythrocyte suspension is added to 50 μl of serially diluted compound. Two controls are made, one without compound and other with 50 μl of 1 vol % solution of Triton X-100. The plate is incubated for about 1 hr at a temperature of about 37° C. The plate is then centrifuged at 3,500 rpm for about 5 min, 100 μl of the supernatant from each well is transferred to a fresh microtiter plate, and absorbance at 540 nm is measured. Percentage of hemolysis is determined as (A−A0)/(Atotal−A0)×100, where A is the absorbance of the test well, A0 the absorbance of the negative controls (without compound), and A total the absorbance of 100% hemolysis wells (with Triton X-100), when absorbance is read at 540 nm.
Toxicity studies of the compounds are carried out on freshly drawn human RBCs. Toxicity of the antimicrobial compounds of the present disclosure is defined by their HC50 values illustrated in Table 3, i.e. the concentration of compound at which 50% of the blood cells are lysed. Haemolytic studies conducted herein illustrates that the antimicrobial compounds provided by the instant disclosure are selective towards drug sensitive bacteria and drug resistant bacteria over human RBCs, thus establishing the non-toxicity of the present compounds.

[4] = system: S. aureus (MTCC 737); assay: Minimum Inhibitory Concentration, micro-dilution broth; assay type: cell-based, Staphylococcus aureus; settings: for Minimum Inhibitory Concentration S. aureus: Drug sensitive bacteria
Experimental: as §1, §2, §3

[5] = system: Pseudomonas aeruginosa (ATCC 4676); assay: as above; assay type: cell-based; settings: for Minimum Inhibitory Concentration P. aeruginosa: Drug sensitive bacteria
Experimental: as §1, §2, §3

[6] = system: vancomycin resistant Enterococcus faecium (ATCC 51559); assay: as above; assay type: cell-based; settings: for Minimum Inhibitory Concentration VRE: Drug resistant bacteria
Experimental: as §1, §2, §3

[7] = system: Enterococcus faecium (ATCC 19634); assay: as above; assay type: cell-based; settings: for Minimum Inhibitory Concentration E. faecium: Drug sensitive bacteria
Experimental: as §1, §2, §3

[8] = system: drug-resistant Klebsiella pneumonia (ATCC700603); assay: as above; assay type: cell-based; settings: for Minimum Inhibitory Concentration K. pneumonia: Drug resistant bacteria
Experimental: as §1, §2, §3

| Structure (SMILES) | MIC value against methicillin-resistant S. aureus [1] | Minimum Inhibitory Concentration MRSA [1] | Minimum Inhibitory Concentration E. coli [2] | HC50 [3] | MIC value against S. aureus [4] | Minimum Inhibitory Concentration S. aureus [4] | Minimum Inhibitory Concentration P. aeruginosa [5] | MIC value against vancomycin-resistant E. faecium [6] | Minimum Inhibitory Concentration VRE [6] | MIC value against E. faecium [7] | Minimum Inhibitory Concentration E. faecium [7] | MIC value against K. pneumonia [8] | Minimum Inhibitory Concentration K. pneumonia [8] | MIC value against E. coli [2] | MIC value against P. aeruginosa [5] |
| --- | --- | --- | --- | --- | --- | --- | --- | --- | --- | --- | --- | --- | --- | --- | --- |
| CCCCCCCCCCN(Cc1c2ccccc2c(Cl)c2ccccc12)C(=O)[C@@H](N)CCCCN.O=C(O)C(F)(F)F [ACK-10, Lys-N-decyl-10-Aminomethyl-9-chloroanthracene trifluoroacetate] | ~4.6 µg/mL | 4.6 µg/mL | 26 µg/mL | 71 µg/mL | ~7.1 µg/mL | 7.1 µg/mL | 11 µg/mL | ~5.6 µg/mL | 5.6 µg/mL | ~4.9 µg/mL | 4.9 µg/mL | ~7.6 µg/mL | 7.6 µg/mL | – | – |
| CCCCCCCCN(Cc1ccccc1)C(=O)C(N)CCCCN.O=C(O)C(F)(F)F (centres unmarked) [BCK-8, Lys-N-octyl-1-Aminomethylbenzene trifluoroacetates] | – | >100 µg/mL | 51 µg/mL | 325 µg/mL | – | 46 µg/mL | 60 µg/mL | – | >100 µg/mL | – | 60 µg/mL | – | >100 µg/mL | – | – |
| CCCCCCCCCCN(Cc1ccccc1)C(=O)[C@@H](N)CCCCN.O=C(O)C(F)(F)F [BCK-10, Lys-N-decyl-1-Aminomethylbenzene trifluoroacetates] | about 15.7 μg/ml | 15.7 µg/mL | 6.5 µg/mL | 95 µg/mL | about 5.7 μg/ml | 5.7 µg/mL | 4 µg/mL | about 5.8 μg/ml | 5.8 µg/mL | about 6.5 μg/ml | 6.5 µg/mL | about 31 μg/ml | 31 µg/mL | about 6.5 μg/ml | about 4 μg/ml |
| CCCCCCCCCCCCN(Cc1ccccc1)C(=O)C(N)CCCCN.O=C(O)C(F)(F)F (centres unmarked) [BCK-12, Lys-N-dodecyl-1-Aminomethylbenzene trifluoroacetates] | ~2.9 µg/mL | 2.9 µg/mL | 5 µg/mL | 45 µg/mL | ~2.7 µg/mL | 2.7 µg/mL | 4 µg/mL | ~3.3 µg/mL | 3.3 µg/mL | ~2.6 µg/mL | 2.6 µg/mL | ~2.8 µg/mL | 2.8 µg/mL | ~5 µg/mL | about 4 μg/ml |
| CCCCCCCCCCCCCCN(Cc1ccccc1)C(=O)C(N)CCCCN.O=C(O)C(F)(F)F (centres unmarked) [BCK-14, Lys-N-tetradecyl-1-Aminomethylbenzene trifluoroacetates] | ~2.5 µg/mL | 2.5 µg/mL | 3.1 µg/mL | 50 µg/mL | ~3.1 µg/mL | 3.1 µg/mL | 2.8 µg/mL | ~2.5 µg/mL | 2.5 µg/mL | ~2 µg/mL | 2 µg/mL | ~4 µg/mL | 4 µg/mL | ~3.1 µg/mL | ~2.8 µg/mL |
| CCCCN(Cc1cccc2ccccc12)C(=O)C(N)CCCCN.O=C(O)C(F)(F)F (centres unmarked) [NCK-4, Lys-N-butyl-1-Aminomethylnaphthalene trifluoroacetate] | – | >100 µg/mL | >100 µg/mL | >1000 µg/mL | – | >100 µg/mL | >100 µg/mL | – | >100 µg/mL | – | >100 µg/mL | – | >100 µg/mL | – | – |
| CCCCCCN(Cc1cccc2ccccc12)C(=O)[C@@H](N)CCCCN.O=C(O)C(F)(F)F [NCK-6, Lys-N-hexyl-1-Aminomethylnaphthalene trifluoroacetate] | – | 65 µg/mL | 25 µg/mL | 508 µg/mL | – | 20 µg/mL | 11 µg/mL | – | 54 µg/mL | – | 34 µg/mL | – | 100 µg/mL | – | about 11 μg/ml |
